Data from patent US20250152719A1, “FUSED IMIDE DERIVATIVE” (Chia Tai Tianqing Pharmaceutical Group Co., Ltd., priority 2021, published 2025).

What was measured:
Type in all cases: cell-based
BTK = BTK (Homo sapiens (Human), UniProt Q06187); assay: BTK degradation in OCI-LY10 cells (Total-BTK HTRF kit); conditions: 24 (or 6) h incubation; for BTK degradation in OCI-LY10 cells Dmax / Dmax: maximum degradation rate; for Dmax: OCI-Ly10, OCI-LY10 cells; for BTK degradation in OCI-LY10 cells Dmax / DC50: OCI-LY10 cells; for DC50: DC50 = concentration when degradation rate reaches 50%, read-out: OCI-LY10 cell BTK degradation DC50
BTK, sequence (Q06187 whole entry): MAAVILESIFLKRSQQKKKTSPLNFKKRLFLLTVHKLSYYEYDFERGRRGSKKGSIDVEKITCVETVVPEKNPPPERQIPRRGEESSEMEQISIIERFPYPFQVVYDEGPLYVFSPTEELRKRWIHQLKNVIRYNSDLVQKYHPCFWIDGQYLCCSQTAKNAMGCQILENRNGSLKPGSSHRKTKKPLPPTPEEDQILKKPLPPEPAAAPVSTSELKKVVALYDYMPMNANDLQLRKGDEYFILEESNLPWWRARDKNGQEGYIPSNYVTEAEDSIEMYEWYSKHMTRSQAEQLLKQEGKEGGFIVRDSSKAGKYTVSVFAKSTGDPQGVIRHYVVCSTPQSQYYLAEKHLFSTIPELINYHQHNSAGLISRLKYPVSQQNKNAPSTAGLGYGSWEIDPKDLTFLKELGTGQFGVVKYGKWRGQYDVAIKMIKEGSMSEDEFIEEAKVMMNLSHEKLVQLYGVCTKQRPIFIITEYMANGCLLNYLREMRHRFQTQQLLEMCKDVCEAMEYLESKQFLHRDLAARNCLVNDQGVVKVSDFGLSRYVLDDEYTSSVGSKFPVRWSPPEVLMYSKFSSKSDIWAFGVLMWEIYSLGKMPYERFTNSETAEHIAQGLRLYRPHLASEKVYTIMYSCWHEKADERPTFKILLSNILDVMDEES
Experimental: The detection was carried out using the Total-BTK Kits (cisbio, 63ADK064PEH), and 4× Supplemented Lysis buffer was prepared using the Blocking reagent stock solution (100×) and Lysis buffer stock solution (4×). Premixed antibody solutions were prepared using the Detection buffer, Total-BTK d2 antibody, and Total-BTK Eu Cryptate antibody.
OCI-LY10 cells in a good growth state were collected and added to a centrifuge tube, adjusted to a cell density of 4.17×10^6 cells/mL, and seeded in a 384-well plate (12 μL/well). The cells were incubated overnight in a cell incubator. Compounds were added using a nanoliter pipettor such that the final concentrations of the compounds were 100 nM-0.098 nM; the addition was performed in duplicate, and meanwhile, a control was set. After another 24 (or 6) h of incubation in the cell incubator, the 4× Supplemented Lysis buffer was added at 4 μL/well to lyse the cells. After the cells were shaken for 40 min at room temperature, the Premixed antibody solutions were added at 4 μL/well, and the cells were left to stand overnight at room temperature. Fluorescence values of the cells were detected at 665 nm/620 nm using an Envision microplate reader, the four-parameter analysis was performed, the dose-response curves were fit, and DC50 (the concentration of the drug when the degradation rate reaches 50%) and Dmax (the maximum degradation rate) were calculated.

TMD8-BTK(C481S) cells = assay: Inhibitory activity on TMD8-BTK(C481S) cell proliferation (CCK-8); conditions: 72 h incubation
Experimental: (§1) TMD8-BTK(C481S) cells in a good growth state were collected and added to a centrifuge tube, adjusted to a cell density of 8×10^4 cells/mL, and seeded in a 96-well plate (100 μL/well). The cells were incubated overnight in a cell incubator. Compounds were added using a nanoliter pipettor such that the final concentrations of the compounds were 5000 nM-0.31 nM; the addition was performed in duplicate, and meanwhile, a control was set. After another 72 h of incubation in the cell incubator, 10 μL of CCK-8 (CK04, PP799) was added. After 4 h of incubation in the cell incubator, absorbance values were detected at 450 nm using an Envision microplate reader, the four-parameter analysis was performed, the dose-response curves were fit, and IC50 was calculated.

OCI-LY10 cells = assay: Inhibitory activity on OCI-LY10 cell proliferation (CCK-8)
Experimental: as §1, with “OCI-LY10 cells” for “TMD8-BTK(C481S) cells”, “of 1×10^5” for “of 8×10^4”, “After 2.5” for “After 4”

[1] = Homo sapiens, OCI-Ly10, 72 h incubation

## NC(=O)c1ncc(N2CCCCC2)nc1Nc1ccc(C2CCN(C[C@H]3C[C@@H](n4ccc5c6c(C7CCC(=O)NC7=O)noc6ccc54)C3)CC2)cc1 (stereo partly shown) [Compound 99-1]
BTK
  BTK degradation in OCI-LY10 cells Dmax: >90%

## CN1CCN([C@@H]2CCCN(c3cnc(C(N)=O)c(Nc4ccc5c(c4)OC[C@H]4CN(CC6Cc7ccc8c(C9CCC(=O)NC9=O)noc8c7C6)CCN54)n3)C2)C1=O (stereo partly shown) [Compound 86]
BTK
  Dmax: > 90%

## NC(=O)c1ncc(N2CCCCC2)nc1Nc1ccc(C2CCN(C3Cc4ccc5c(C6CCC(=O)NC6=O)noc5c4C3)CC2)cc1 (stereo not shown) [Compound 70]
TMD8-BTK(C481S) cells
  IC50: 15 nM

## CN1CCN([C@@H]2CCCN(c3cnc(C(N)=O)c(Nc4ccc(C5CCN(C[C@H]6C[C@H](n7ccc8c9c(C%10CCC(=O)NC%10=O)noc9ccc87)C6)CC5)cc4)n3)C2)C1=O (stereo partly shown) [Compound 98-1]
BTK
  BTK degradation in OCI-LY10 cells Dmax: >90%

## CN1CCN([C@@H]2CCCN(c3cnc(C(N)=O)c(Nc4ccc(C5CC6CCCC(C5)N6CC5Cc6ccc7c(C8CCC(=O)NC8=O)noc7c6C5)cc4)n3)C2)C1=O (stereo partly shown) [Compound 82]
BTK
  BTK degradation in OCI-LY10 cells Dmax: >90%
OCI-LY10 cells; 72 h incubation
  IC50: < 0.31 nM
TMD8-BTK(C481S) cells
  IC50: 11 nM

## CN1CCN([C@@H]2CCCN(c3cnc(C(N)=O)c(Nc4ccc(C5C[C@@H]6CN(CC7Cc8ccc9c(C%10CCC(=O)NC%10=O)noc9c8C7)C[C@@H]6C5)cc4)n3)C2)C1=O (stereo partly shown) [Compound 48]
BTK
  Dmax: > 90%
TMD8-BTK(C481S) cells; 72 h
  IC50: 5.7 nM

## CN1CCN([C@@H]2CCCN(c3cnc(C(N)=O)c(Nc4ccc(C5CC6CCCC(C5)N6C5Cc6ccc7c(C8CCC(=O)NC8=O)noc7c6C5)cc4)n3)C2)C1=O (stereo partly shown) [Compound 80]
BTK
  BTK degradation in OCI-LY10 cells Dmax: >90%
OCI-LY10 cells; 72 h incubation
  IC50: < 0.31 nM
TMD8-BTK(C481S) cells
  IC50: 11 nM

## NC(=O)c1ncc(N2CCCCC2)nc1Nc1ccc(N2CCC(N3CCc4ccc5c(C6CCC(=O)NC6=O)noc5c4CC3)CC2)cc1 (stereo not shown) [Compound 62]
BTK
  Dmax: > 90%
OCI-LY10 cells; [1]
  IC50: < 0.31 nM
TMD8-BTK(C481S) cells; 72 h
  IC50: 8.2 nM

## CN1CCN([C@@H]2CCCN(c3cnc(C(N)=O)c(Nc4ccc(C5CCN(C6Cc7ccc8c(C9CCC(=O)NC9=O)noc8c7C6)CC5)cc4)n3)C2)C1=O (stereo partly shown) [Compound 88]
BTK
  BTK degradation in OCI-LY10 cells Dmax: >90%
TMD8-BTK(C481S) cells
  IC50: 29 nM

## NC(=O)c1ncc(N2CCCCC2)nc1Nc1ccc(C2CCN(CC3Cc4ccc5c(C6CCC(=O)NC6=O)noc5c4C3)CC2)cc1 (stereo not shown) [Compound 76]
BTK
  Dmax: > 90%
TMD8-BTK(C481S) cells
  IC50: 11 nM

## NC(=O)c1ncc(N2CCCCC2)nc1Nc1ccc(N2CCC(N3Cc4ccc5c(C6CCC(=O)NC6=O)noc5c4C3)CC2)cc1 (stereo not shown) [Compound 31]
BTK
  Dmax: > 90%

## CN1CCN([C@@H]2CCCN(c3cnc(C(N)=O)c(Nc4ccc(C5CCC6(CC5)CC(N5Cc7ccc8c(C9CCC(=O)NC9=O)noc8c7C5)C6)cc4)n3)C2)C1=O (stereo partly shown) [Compound 56]
BTK
  Dmax: > 90%
TMD8-BTK(C481S) cells; 72 h
  IC50: 33 nM

## CN1CCN([C@@H]2CCCN(c3cnc(C(N)=O)c(Nc4ccc(C5CCC6(CC5)CN(C5CN(c7ccc8c(C9CCC(=O)NC9=O)noc8c7)C5)C6)cc4)n3)C2)C1=O (stereo partly shown) [Compound 12]
BTK
  DC50: 0.098 nM
  BTK degradation in OCI-LY10 cells Dmax: 99%

## CN1CCN([C@@H]2CCCN(c3cnc(C(N)=O)c(Nc4ccc(C5CCN([C@H]6CC[C@H](n7ccc8c9c(C%10CCC(=O)NC%10=O)noc9ccc87)CC6)CC5)cc4)n3)C2)C1=O (stereo partly shown) [Compound 102-2]
BTK
  DC50: < 0.098 nM
  BTK degradation in OCI-LY10 cells Dmax: 97.11%

## CN1CCN([C@@H]2CCCN(c3cnc(C(N)=O)c(Nc4ccc(C5CCC6(CC5)CN(CC5Cc7ccc8c(C9CCC(=O)NC9=O)noc8c7C5)C6)cc4)n3)C2)C1=O (stereo partly shown) [Compound 52]
BTK
  BTK degradation in OCI-LY10 cells Dmax: >90%
TMD8-BTK(C481S) cells; 72 h
  IC50: 3.7 nM

## CN1CCN([C@@H]2CCCN(c3cnc(C(N)=O)c(Nc4ccc(C5CCC6(CC5)CCN(CC5Cc7ccc8c(C9CCC(=O)NC9=O)noc8c7C5)CC6)cc4)n3)C2)C1=O (stereo partly shown) [Compound 51]
BTK
  BTK degradation in OCI-LY10 cells Dmax: >90%
TMD8-BTK(C481S) cells
  IC50: 4.7 nM

## NC(=O)c1ncc(N2CCCCC2)nc1Nc1ccc(C2CCC(N3CCc4ccc5c(C6CCC(=O)NC6=O)noc5c4CC3)CC2)cc1 (stereo not shown) [Compound 67]
TMD8-BTK(C481S) cells
  IC50: 32 nM

## CN1CCN([C@@H]2CCCN(c3cnc(C(N)=O)c(Nc4ccc5c(c4)CN(CC4Cc6ccc7c(C8CCC(=O)NC8=O)noc7c6C4)C5)n3)C2)C1=O (stereo partly shown) [Compound 45]
BTK
  BTK degradation in OCI-LY10 cells Dmax: >90%

## NC(=O)c1ncc(N2CCCCC2)nc1Nc1ccc(C2CCN([C@H]3CC[C@H](n4ccc5c6c(C7CCC(=O)NC7=O)noc6ccc54)CC3)CC2)cc1 (stereo partly shown) [Compound 103-2]
BTK
  BTK degradation in OCI-LY10 cells Dmax: >90%

## CN1CCN([C@@H]2CCCN(c3cnc(C(N)=O)c(Nc4ccc(C5CCN(C[C@H]6CCN(c7cc8onc(C9CCC(=O)NC9=O)c8cc7F)C6)CC5)cc4)n3)C2)C1=O (stereo partly shown) [Compound 3]
BTK
  DC50: < 0.098 nM
  Dmax: 99%
OCI-LY10 cells; [1]
  IC50: < 0.31 nM

## NC(=O)c1ncc(N2CCCCC2)nc1Nc1ccc(N2CCC(N3CCc4ccc5c(C6CCC(=O)NC6=O)noc5c4C3)CC2)cc1 (stereo not shown) [Compound 60]
TMD8-BTK(C481S) cells; 72 h
  IC50: 9.4 nM

## CN1CCN([C@@H]2CCCN(c3cnc(C(N)=O)c(Nc4ccc(C5CCC6(CC5)CC(N5CCc7c(ccc8c(C9CCC(=O)NC9=O)noc78)C5)C6)cc4)n3)C2)C1=O (stereo partly shown) [Compound 58]
BTK
  Dmax: > 90%
TMD8-BTK(C481S) cells; 72 h
  IC50: 21 nM

## CN1CCN([C@@H]2CCCN(c3cnc(C(N)=O)c(Nc4ccc(C5C[C@@H]6CN(CC7Cc8ccc9c(C%10CCC(=O)NC%10=O)noc9c8C7)C[C@@H]6C5)cc4)n3)C2)C1=O (stereo partly shown) [Compound 49]
BTK
  BTK degradation in OCI-LY10 cells Dmax: >90%
TMD8-BTK(C481S) cells
  IC50: 6.8 nM

## CN1CCN([C@@H]2CCCN(c3cnc(C(N)=O)c(Nc4ccc(C5CCN(C[C@H]6CCN(c7cccc8c(C9CCC(=O)NC9=O)noc78)C6)CC5)cc4)n3)C2)C1=O (stereo partly shown) [Compound 2]
BTK
  DC50: < 0.098 nM
  Dmax: 99%
TMD8-BTK(C481S) cells; 72 h
  IC50: 18 nM

## NC(=O)c1ncc(N2CCCCC2)nc1Nc1ccc(C2CCN(CC3Cc4ccc5c(C6CCC(=O)NC6=O)noc5c4C3)CC2)cc1 (stereo not shown) [Compound 75]
TMD8-BTK(C481S) cells; 72 h
  IC50: 9.8 nM

## CN1CCN(C2CCCN(c3cnc(C(N)=O)c(Nc4ccc(C5CCC6(CC5)CN(C5Cc7ccc8c(C9CCC(=O)NC9=O)noc8c7C5)C6)cc4)n3)C2)C1=O (stereo not shown) [Compound 55]
BTK
  BTK degradation in OCI-LY10 cells Dmax: >90%
TMD8-BTK(C481S) cells
  IC50: 6.1 nM

## CN1CCN([C@@H]2CCCN(c3cnc(C(N)=O)c(Nc4ccc5c(c4)CCC4(CCN(CC6Cc7ccc8c(C9CCC(=O)NC9=O)noc8c7C6)CC4)O5)n3)C2)C1=O (stereo partly shown) [Compound 78]
BTK
  BTK degradation in OCI-LY10 cells Dmax: >90%

## NC(=O)c1ncc(N2CCCCC2)nc1Nc1ccc(C2CCC(CN3CCc4ccc5c(C6CCC(=O)NC6=O)noc5c4CC3)CC2)cc1 (stereo not shown) [Compound 74]
TMD8-BTK(C481S) cells
  IC50: 23 nM

## CN1CCN(C2CCCN(c3cnc(C(N)=O)c(Nc4ccc(C5CCC6(CC5)CN(C5Cc7ccc8c(C9CCC(=O)NC9=O)noc8c7C5)C6)cc4)n3)C2)C1=O (stereo not shown) [Compound 54]
BTK
  Dmax: > 90%
TMD8-BTK(C481S) cells; 72 h
  IC50: 9.7 nM

## CN1CCN([C@@H]2CCCN(c3cnc(C(N)=O)c(Nc4ccc(C5CCC6(CC5)CC(N5CCc7ccc8c(C9CCC(=O)NC9=O)noc8c7C5)C6)cc4)n3)C2)C1=O (stereo partly shown) [Compound 57]
BTK
  Dmax: > 90%

## CN1CCN([C@@H]2CCCN(c3cnc(C(N)=O)c(Nc4ccc(C5CCN([C@H]6CC[C@@H](n7ccc8c9c(C%10CCC(=O)NC%10=O)noc9ccc87)CC6)CC5)cc4)n3)C2)C1=O (stereo partly shown) [Compound 102-1]
BTK
  BTK degradation in OCI-LY10 cells Dmax: >90%

## CN1CCN([C@@H]2CCCN(c3cnc(C(N)=O)c(Nc4ccc(C5CCN(C[C@H]6CCN(c7ccc8onc(C9CCC(=O)NC9=O)c8c7)C6)CC5)cc4)n3)C2)C1=O (stereo partly shown) [Compound 4]
TMD8-BTK(C481S) cells; 72 h
  IC50: 27 nM

## NC(=O)c1ncc(N2CCCCC2)nc1Nc1ccc(N2CCC(N3CCc4c(ccc5c(C6CCC(=O)NC6=O)noc45)C3)CC2)cc1 (stereo not shown) [Compound 61]
TMD8-BTK(C481S) cells; 72 h
  IC50: 13 nM
